From patent US12605403B2, “Compositions and methods for treating transient biofilms” (WIAB WATER INNOVATION AB, priority 2016, dated 2026)

Tests used:
[1] = tested on: natural bacteria; test: hand and forearm rub test, effect on natural bacteria of the skin (Handrub procedure PN-EN 12791:2005); assay type: in vivo; conditions: hands of 20 subjects
Method: In another experiment aliquots of the disclosed composition (3 mL of 0.03% HOCl, 0.13% Hac) were applied to each of the hands of 20 subjects. […] The composition was rubbed into the hands and forearms for 5 minutes to maintain exposure to the compositions according to Handrub procedure PN-EN 12791:2005.
Bacteria kills of Escherichia coli, Pseudomonas aeruginosa, Staphylococcus areus, and Enterococcus hirae were measured immediately after the application and again 3 hours after application.

[2] = tested on: Escherichia coli; test: hand disinfection test, transient bacteria on hands of subjects (Handrub procedure PN-EN 1500:2013-07); assay type: in vivo; conditions: 18 subjects, E. coli on hands, hand rub
Method: Tests were performed on the hands of healthy subjects to determine the transient bacteria killing effect of the disclosed compositions. The subjects washed their hands, and dipped their fingertips into Escherichia coli. The disclosed compositions were applied to the subjects' hands by rubbing the disclosed compositions into the skin to stimulate the removal of the transient bacteria on the skin. The same test was performed using prior art alcohol compositions.
Tests were performed on the hands of healthy subjects to determine the transient bacteria killing effect of the disclosed compositions.
In this experiment, 18 subjects washed their hands, and dipped their fingertips into a solution of Escherichia coli. Once the subjects' hands were dry, aliquots of the disclosed composition (5 mL of 160 ppm HOCl, 0.13% Hac) were applied to the subjects' dry hands and rubbed into the skin for 30 to stimulate the removal of the transient bacteria on the skin, according to Handrub procedure PN-EN 1500:2013-07.

Row | Structure (SMILES) | reduction of the natural bacteria ([1]; 3 hours after application) | reduction of the natural bacteria ([1]; immediately after application) | reduction of the presence of the transient bacteria [2]
1 | CCCO [propan-1-ol, 60% v/v, propan-1-ol] | 2.16 log | 2.48 log | 
2 | CC(C)O [2-propanol 60% v/v, 2-propanol] |  |  | 4 log
